Assay results: patent US20040157740A1, “Heterocyclyl phenyl benzyl ethers used as fungicides” (priority 2001, published 2004)

Test: logP determination by HPLC (EEC Directive 79/831 Annexe V. A8, gradient method)
Type: physicochemical
Conditions: pH 2; read-out: log P (pH 2)

Cc1cc(-c2nnnn2C)ccc1O [1-methyl-5-(3-methyl-4-hydroxyphenyl)tetrazole]
chromatographic logP: 1.04

CO/N=C(/C(=O)OC)c1ccccc1COc1ccc(-c2nnn(C)n2)cc1C [Example 1, methyl 2-[4-(2-methyltetrazol-5-yl)-2-methylphenoxy]methylphenylglyoxylate O-methyl oxime]
chromatographic logP: 3.08

CNC(=O)/C(=N/OC)c1ccccc1COc1ccc(-c2nnn(C)n2)cc1C [Example 2, N-methyl-2-[4-(2-methyltetrazol-5-yl)-2-methylphenoxy]methylphenylglyoxylamide O-methyl oxime]
chromatographic logP: 2.58

CCc1nc(-c2ccc(OCc3ccccc3/C(=N\OC)C(=O)OC)c(C)c2)no1 [Example 3, methyl 2-[4-(5-ethyl-1,2,4-oxadiazol-3-yl)-2-methylphenoxy]methylphenylglyoxylate O-methyl oxime]
chromatographic logP: 3.8

CCc1nc(-c2ccc(OCc3ccccc3/C(=N\OC)C(=O)NC)c(C)c2)no1 [Example 4, N-methyl-2-[4-(5-ethyl-1,2,4-oxadiazol-3-yl)-2-methylphenoxy]methylphenylglyoxylamide O-methyl oxime]
chromatographic logP: 3.24

CO/N=C(/C(=O)OC)c1ccccc1COc1ccc(-c2nc(C(F)(F)F)ns2)cc1C [Example 5, methyl 2-[4-(3-trifluoromethyl-1,2,4-thiadiazol-5-yl)-2-methylphenoxy]methylphenylglyoxylate O-methyl oxime]
chromatographic logP: 4.62

CNC(=O)/C(=N/OC)c1ccccc1COc1ccc(-c2nc(C(F)(F)F)ns2)cc1C [Example 6, N-methyl-2-[4-(3-trifluoromethyl-1,2,4-thiadiazol-5-yl)-2-methylphenoxy]methylphenylglyoxylamide O-methyl oxime]
chromatographic logP: 4.08

Cc1cc(-c2nnn(C)n2)ccc1O [Example III-1, 2-methyl-5-(3-methyl-4-hydroxyphenyl)tetrazole]
chromatographic logP: 1.45

CCc1nc(-c2ccc(O)c(C)c2)no1 [Example III-2, 5-ethyl-3-(3-methyl-4-hydroxyphenyl)-1,2,4-oxadiazole]
chromatographic logP: 2.08

Cc1cc(-c2nc(C(F)(F)F)ns2)ccc1O [Example III-3, 3-trifluoromethyl-5-(3-methyl-4-hydroxyphenyl)-1,2,4-thiadiazole]
chromatographic logP: 3.1

Cc1cc(-c2nnn(C(C)(C)C)n2)ccc1O [Example III-4]
chromatographic logP: 2.54

C#CCn1nnc(-c2ccc(O)c(C)c2)n1 [Example III-5]
chromatographic logP: 1.81

C#CCn1nnnc1-c1ccc(O)c(C)c1 [Example III-6]
chromatographic logP: 1.41

Cc1cc(-c2nnn(C(F)F)n2)ccc1O [Example III-7]
chromatographic logP: 2.18

Cc1cc(-c2nnnn2C(F)F)ccc1O [Example III-8]
chromatographic logP: 1.75

COc1ccc(-c2nn[nH]n2)cc1C [Example V-1, 5-(3-methyl-4-methoxyphenyl)tetrazole]
chromatographic logP: 1.51

COc1ccc(-c2nnn(C)n2)cc1C [Example V-2, 2-methyl-5-(3-methyl-4-methoxyphenyl)tetrazole]
chromatographic logP: 2.38

COc1ccc(-c2nnn(C(C)(C)C)n2)cc1C [Example V-3]
chromatographic logP: 3.78

C#CCn1nnnc1-c1ccc(OC)c(C)c1 [Example V-5]
chromatographic logP: 2.12

COc1ccc(-c2nnn(C(F)F)n2)cc1C [Example V-6]
chromatographic logP: 3.24

COc1ccc(-c2nnnn2C(F)F)cc1C [Example V-7]
chromatographic logP: 2.51

CCc1nc(-c2ccc(OC)c(C)c2)no1 [Example V-8]
chromatographic logP: 3.19

Cc1cc(-c2nc(C(F)(F)F)ns2)ccc1OCc1ccc(Cl)cc1 [Example V-9, 3-trifluoromethyl-5-[3-methyl-4-(4-chlorobenzyloxy)phenyl]-1,2,4-thiadiazole]
chromatographic logP: 5.78

C#CCn1nnc(-c2ccc(OC)c(C)c2)n1 [Example V-44]
chromatographic logP: 2.75

COc1ccc(/C(N)=N/O)cc1C [Example VII-I, 3-methyl-4-methoxybenzamideoxime]
chromatographic logP: 0.36
